The values that follow come from patent US9724391B2, “Combination preparation including a corticosteroid and exosomes” (ORTHOGEN AG, priority 2009, dated 2017).

Assay [1] has as its system patient with partial rotator cuff rupture and complete shoulder stiffness le. The note with it: before combination therapy.
Protocol: Surgery appointment for the left shoulder was made. Here it should be tried to avoid surgery. […] 2 ml Orthokine were administered into the shoulder with 10 mg Anakinra and 10 mg triamcinolone via a syringe. […] The therapy was continued until day 4.
Assay [2] concerns patient with psoriasic arthritis. The note with it: cortisone 20-40 mg intraarticular, effect for some days; combination after a few days.
Assay [3] concerns patient with complete alopecia. The note with it: systemic and local application, high doses (10-80 mg prednisolone).
Assay [4] has as its system patient with severe neurodermitis. Put plainly: Case IX: severe neurodermitis, intramuscular application. It is filed as in vivo, human. The note with it: systemic intramuscular application, doses of 80 mg. The protocol: FIG. 1A to FIG. 1C show pictures of the feet of a neurodermitis patient whose case is described below as case IX (Example 4).
Case IX: • Severe dermatologically verified neurodermitis with strong changes, especially in the area of hands and feet. […] After that, attempt of intramuscular application of 2 ml of exosomes in connection with 20 mg triamcinolone. […] Subsequent slight deterioration but still improvement compared to preliminary findings. FIG. 1A describes the dermatological changes at both feet immediately before treatment, FIG. 1B and FIG. 1C one week after treatment for the right/left foot.

Assay [5] has as its system patient with gonarthrosis ri, cartilage defects degree 2-4 according to Outerbridge. Put plainly: Case VIII: gonarthrosis ri, intraarticular injection into the right knee. Type of assay: in vivo, human. To be noted: triamcinolone 10-40 mg intraarticular (history); exosomes one-time intraarticular, after 4 weeks. The method, then:
Case VIII: • Gonarthrosis ri with cartilage defects verified arthroscopically degree 2-4 according to Outerbridge. The patient wishes to delay surgery and joint replacement. History of intraarticular injection of triamcinolone in doses of 10-40 mg to no effect. Injection of 1 ml of exosomes prepared by means of the technique as described after incubation with IL-1Ra. […] Afterwards decision for an intraarticular injection into the right knee combined with 10 mg triamcinolone.

For assay [6], the system named is patient with severe Bechterew arthritis. Put plainly: Case X: severe Bechterew arthritis, injection into the affected joints. Type of assay: in vivo, human. The note with it: total dose 40 mg into all affected joints; for 1 week. The protocol: Case X • Severe Bechterew arthritis with iridocyclitis left eye. Patient is given prednisolone and MTX in changing doses as basic therapy. CRP 20_3 mg/l; left CFJ clearly swollen with +2 cm compared to the other side; left MCP and first knuckle 1st finger left clearly swollen and painful, right shoulder swollen, painful, abduction reduced by 30 degrees compared to normal. […] CRP within 1 week reduced from 20.3 mg/l to 2.9 mg/l.

Assay [7] relates to patient with severe therapy-resistant rheumatoid arthritis. To be noted: after one week; triamcinolone alone 10 mg to 40 mg intraarticular, combination with total 20 mg triamcinolone.
Protocol: Injection of exosomes (after incubation with IL-1Ra) and admixing total amount of 20 mg triamcinolone in MCP2-5 ab. and both shoulders.
A further assay relates to osteoarthritis. To be noted: in vivo; cited from earlier work.

On to `C[C@]12CCC(=O)C=C1CC[C@@H]1[C@@H]2C(=O)C[C@@]2(C)[C@H]1CC[C@]2(O)C(=O)CO` [cortisone], for which the “outcome of numerous earlier injections into the left shoulder” value in assay [1] is reported as “without success”. Besides, the pain reduction in assay [2] was 10-30%. In addition, the “effect of earlier therapy attempts on alopecia” value in assay [3] is “without effect”.
As to `C[C@]12C=CC(=O)C=C1CC[C@@H]1[C@@H]2[C@@H](O)C[C@@]2(C)[C@H]1CC[C@]2(O)C(=O)CO` [prednisolone], in assay [4], the “duration of short-term effect” value stood at 1 week.
For the compound `C[C@]12C=CC(=O)C=C1CC[C@H]1[C@@H]3C[C@@H](O)[C@](O)(C(=O)CO)[C@@]3(C)C[C@H](O)[C@@]12F` [triamcinolone], the “clinical effect regarding pain and function of single agents” value in assay [5] is given as “to no effect”. In addition, the “duration of short-term effect” value in assay [4] stood at 1 week. Besides, in assay [6], the improvement was 20%. Also, the “pain improvement / pain reduction” value in assay [7] was found to be 20%.
As to “Anakinra: recombinant human IL-1 receptor antagonist, amino acids 26-177, terminally L-methionylated, 153 amino acids”, the “effects in the treatment of osteoarthritis compared to a placebo treatment” value with osteoarthritis was “did not show any effects”.
